Laboratory results reported in patent publication US9526737B2, “Oxysterols for activation of hedgehog signaling, osteoinduction, antiadipogenesis, and Wnt signaling” (THE REGENTS OF THE UNIVERSITY OF CALIFORNIA, priority 2007, dated 2016).
Like-named read-outs stand apart in the source and are kept apart here.

Experiments:
marrow stromal cells = assay: Osteoinductive properties (osteoblast differentiation markers: ALP activity, osteocalcin mRNA, mineralization); format: cell-based; conditions: induction of osteoblast differentiation markers
From the text: Oxysterols discussed in this application include those designated as Oxy22, Oxy26, Oxy27, Oxy28, Oxy39, Oxy40, Oxy41, Oxy42, Oxy48, Oxy49, Oxy20, Oxy34, Oxy36, Oxy38, Oxy50, Oxy51, Oxy52, and Oxy53. At least the following oxysterols have been identified as osteoinductive: Oxy22, Oxy26, Oxy27, Oxy28, Oxy39, Oxy40, Oxy41, Oxy42, Oxy48, Oxy49, Oxy50, Oxy51, Oxy52, and Oxy53. The osteoinductive properties of these oxysterols is shown by their ability to induce the expression of various osteoblast differentiation markers, including alkaline phosphatase activity, osteocalcin mRNA expression, and mineralization. These oxysterols are activators of the hedgehog signaling pathway.

[1] = tested on: M2-10B4 marrow stromal cells; assay: Alkaline phosphatase (ALP) activity assay; conditions: for fold induction at 2.5 µM / fold induction at 5 µM / fold induction at 1.25 µM: M210B4, 72 h; for Alkaline phosphatase activity versus control vehicle (significance): 1.25 μM, 3 days, p>0.05
Experimental: The protocol is a modification of alkaline phosphatase assay kit from Sigma. Cells are cultured in 24-well tissue culture plates. After treatments with test agents, cells are rinsed twice with PBS and scraped into 200 ml of lysis buffer (0.2% NP-40 in 1 mM MgCl2) and sonicated for 10 seconds. Next, 1 ml of reaction mixture is added to each well. Reaction mixture is 221 alkaline buffer (Sigma): stock substrate solution (1:1). Stock substrate solution is prepared by dissolving 40 mg of Sigma 104 phosphatase substrate in 10 ml of ddH2O. After addition of reaction mixture to lysed cells, incubation is performed for 30 minutes at 37 C. […] The reaction is stopped by the addition of 12 ml of 1N NaOH to each well, and absorbance is determined at 405 nm. Alkaline phosphatase activity is calculated using p-nitrophenol as a standard, according to Sigma kit's instructions. Results are normalized to total protein in each well determined using the Bio-Rad protein assay solution (Bio-Rad Laboratories).
M2-10B4 marrow stromal cells were treated with oxysterols at various doses for 3 days after which they were collected and analyzed by calorimetric assay for alkaline phosphatase activity (a marker of osteoblastic differentiation) (Table 1); the alkaline phosphatase assay described above was used.
M2-10B4 marrow stromal cells were treated with oxysterols at various doses for 3 days after which they were collected and analyzed by colorimetric assay for alkaline phosphatase activity (a marker of osteoblastic differentiation) (Table 2); the alkaline phosphatase assay described above was used.
M2-10B4 bone marrow stromal cells were treated in culture with control vehicle (C) or various oxysterol (Oxy) molecules as indicated at either 1.25 (1) or 2.5 (2) μM concentrations. After 3 days of treatment, alkaline phosphatase activity as a measure of early osteogenic differentiation of cells was measured in whole cell lysates (See FIG. 9 and Table 3); the alkaline phosphatase assay described above was used.

[2] = tested on: Naked Cuticle 2 (Nkd2) mRNA expression; format: cell-based; conditions: M2 cells pre-treated 2 h with inhibitor, then 5 μM SS for 48 h
Experimental: (§1) Total RNA was extracted with the RNA isolation kit from Stratagene (La Jolla, Calif.) according to the manufacturer's instructions. RNA was DNase-treated using the DNA-free kit from Ambion, Inc. (Austin, Tex.). 3 μg of RNA was reverse-transcribed using reverse transcriptase from Stratagene (La Jolla, Calif.) to make single stranded cDNA. The cDNAs were mixed with Qi SYBR Green Supermix from Bio-Rad Laboratories (Hercules, Calif.) for quantitative RT-PCR using a Bio-Rad I-cycler IQ quantitative thermocycler. All PCR samples were prepared in triplicate or quadruplicate. Each sample was added to duplicate wells of a 96-well plate. After 40 cycles of PCR, melt curves were analyzed in order to ensure primer specificity, and the identity of all PCR products were verified by sequencing and comparing with the complete mRNA sequence obtained from PubMed's GenBank. Fold changes in gene expression were calculated using the ΔΔCt method (14). All primers were designed using the Beacon Designer software from Bio-Rad Laboratories (Hercules, Calif.). Primers used are as follows: OCN (5′-[…]-3′ (SEQ ID NO: 1) and 5′-[…]-3′ (SEQ ID NO: 2)), Axin2(5′[…]-3′ (SEQ ID NO: 3) and 5′-[…]-3′ (SEQ ID NO: 4)), Cyclin D1(5′-[…]-3′ (SEQ ID NO: 5) and 5′-[…]-3′ (SEQ ID NO: 6)), NKD2 (5′-[…]-3′ (SEQ ID NO: 7) and 5′[…]-3′ (SEQ ID NO: 8)), WIF-1 (5′-[…]-3′ (SEQ ID NO: 9) and 5′-[…]-3′ (SEQ ID NO: 10)), and GAPDH (5′-[…]-3′ (SEQ ID NO: 11) and 5′-[…]-3′ (SEQ ID NO: 12)).
(§2) M2 cells were treated with 5 μM SS, 200 ng/ml Shh, or control vehicle for 48 h. RNA was isolated and analyzed by Q-RT-PCR for Nkd2 (E) and WIF-1 (F) expression (See FIGS. 4E and 4F).
(§3) M2 cells were pre-treated for 2 h with vehicle or cyclopamine (Cyc) at the concentrations indicated. Next, cells were treated with 5 μM SS or control vehicle for 48 h. RNA was isolated and analyzed for Nkd2 (A) and WIF-1 (B) expression by Q-RT-PCR (See FIGS. 5A and 5B).
(§4) M2 cells were pre-treated for 2 h with Dkk-1 or vehicle. Next, cells were treated with 5 μM SS or control vehicle for 48 h. RNA was isolated and analyzed for Nkd2 (C), Wif-1 (D), and Ptch (E) expression (See FIGS. 5C-5E).
(§5) M2 cells were pre-treated for 2 h with 5 μM LY, 2.5 μM Wm, or vehicle followed by treatment with 5 μM SS or control vehicle for 48 h. RNA was isolated and analyzed for Nkd2 (FIG. 7E) and Wif-1 (FIG. 7F) expression.

[3] = tested on: Wnt Inhibitory factor-1 (Wif-1) mRNA expression; format: cell-based; conditions: M2 cells pre-treated 2 h with inhibitor, then 5 μM SS for 48 h
Experimental: as §1, §2, §3, §4, §5

[4] = tested on: Patched (Ptch) mRNA expression; assay: Q-RT-PCR for Patched (Ptch) mRNA expression; format: cell-based; conditions: M2 cells pre-treated 2 h with inhibitor, then 5 μM SS for 48 h
Experimental: Total RNA was extracted with the RNA isolation kit from Stratagene (La Jolla, Calif.) according to the manufacturer's instructions. RNA was DNase-treated using the DNA-free kit from Ambion, Inc. (Austin, Tex.). 3 μg of RNA was reverse-transcribed using reverse transcriptase from Stratagene (La Jolla, Calif.) to make single stranded cDNA. The cDNAs were mixed with Qi SYBR Green Supermix from Bio-Rad Laboratories (Hercules, Calif.) for quantitative RT-PCR using a Bio-Rad I-cycler IQ quantitative thermocycler. All PCR samples were prepared in triplicate or quadruplicate. Each sample was added to duplicate wells of a 96-well plate. After 40 cycles of PCR, melt curves were analyzed in order to ensure primer specificity, and the identity of all PCR products were verified by sequencing and comparing with the complete mRNA sequence obtained from PubMed's GenBank. Fold changes in gene expression were calculated using the ΔΔCt method (14). All primers were designed using the Beacon Designer software from Bio-Rad Laboratories (Hercules, Calif.). […]
M2 cells were pre-treated for 2 h with Dkk-1 or vehicle. […] RNA was isolated and analyzed for Nkd2 (C), Wif-1 (D), and Ptch (E) expression (See FIGS. 5C-5E).

[5] = read-out: Fold Induction in alkaline phosphatase activity compared to control untreated cells
[6] = read-out: Fold Induction in alkaline phosphatase activity over control untreated cells

SMILES	Osteoinductive property (marrow stromal cells)	fold induction at 2.5 µM [1, 5]	fold induction at 5 µM [1, 5]	further results
C[C@]12CC[C@H]3[C@@H](CC=C4C[C@@H](O)CC[C@@]43C)[C@@H]1CC[C@@H]2[C@@](C)(O)CCc1ccccc1F [Oxy39, (3S,8S,9S,10R,13S,14S,17S)-17-((S)-4-(2-Fluorophenyl)-2-hydroxybutan-2-yl)-10,13-dimethyl-2,3,4,7,8,9,10,11,12,13,14,15,16,17-tetradecahydro-1H-cyclopenta[a]phen-anthren-3-ol]	osteoinductive	52	148	
C[C@]12CC[C@H](O)C[C@@H]1[C@@H](O)C[C@@H]1[C@@H]2CC[C@@]2(C)[C@H]1CC[C@@H]2[C@@](C)(O)CCc1ccccc1 [Oxy52, (3S,5S,6S,8R,9S,10R,13S,14S,17S)-17-((S)-2-hydroxy-4-phenylbutan-2-yl)-10,13-dimethylhexadecahydro-1H-cyclopenta[a]phenanthrene-3,6-diol]	osteoinductive			fold induction at 1.25 µM [1, 6]: 5; fold induction at 2.5 µM [1, 6]: 22
C[C@]12CCC3C(CC=C4C[C@@H](O)CC[C@@]43C)C1CCC2[C@@](C)(O)CCCc1ccccc1 (stereo partly shown) [Oxy22]	osteoinductive	4	9	
CC(CO)CCC[C@](C)(O)[C@H]1CC[C@H]2[C@@H]3CC=C4C[C@@H](O)CC[C@]4(C)[C@H]3CC[C@@]21C (stereo partly shown) [Oxy40]	osteoinductive	28	105	
CC(CO)CCC[C@](C)(O)[C@H]1CC[C@H]2[C@@H]3C[C@H](O)[C@H]4C[C@@H](O)CC[C@]4(C)[C@H]3CC[C@@]21C (stereo partly drawn) [Oxy48, (3S,5S,6S,8R,9S,10R,13S,14S,17S)-17-((2S)-2,7-Dihydroxy-6-methylheptan-2-yl)-10,13-dimethylliexadecahydro-1H-cyclopenta[a]phenanthrene-3,6-diol]	osteoinductive	11	43	
CC(=O)O[C@H]1CC2C3CCC([C@@](C)(O)CCCC(C)C)[C@@]3(C)CCC2[C@@]2(C)CC[C@H](O)C[C@H]12 (stereo partly shown) [Oxy28]	osteoinductive	59	75	
C[C@]12CC[C@H]3[C@@H](CC=C4C[C@@H](O)CC[C@@]43C)[C@@H]1CC[C@@H]2[C@@](C)(O)CCc1ccccc1 [Oxy27, (3S,8S,9S,10R,13S,14S,17S)-17-((S)-2-Hydroxy-4-phenylbutan-2-yl)-10,13-dimethyl-2,3,4,7,8,9,10,11,12,13,14,15,16,17-tetradecahydro-1H-cyclopenta[a]phenanthren-3-ol]	osteoinductive	17	42	
C[C@]12CC[C@H](O)C[C@@H]1[C@@H](O)C[C@@H]1[C@@H]2CC[C@@]2(C)[C@H]1CC[C@@H]2[C@@](C)(O)CCCc1cccs1 [Oxy50, (3S,5S,6S,8R,9S,10R,13S,14S,17S)-17-((S)-2-hydroxy-5-(thiophen-2-yl)pentan-2-yl)-10,13-dimethylhexadecahydro-1H-cyclopenta[a]phenanthrene-3,6-diol]	osteoinductive			fold induction at 1.25 µM [1, 6]: 25; fold induction at 2.5 µM [1, 6]: 65
CC(C)C/C=C/[C@](C)(O)C1CC[C@H]2[C@@H]3CC=C4C[C@@H](O)CC[C@]4(C)[C@H]3CC[C@]12C (stereo partly drawn) [Oxy20, (3S,8S,9S,10R,13S,14S)-17-((S,E)-2-hydroxy-6-methylhept-3-en-2-yl)-10,13-dimethyl-2,3,4,7,8,9,10,11,12,13,14,15,16,17-tetradecahydro-1H-cyclopenta[a]phenanthren-3-ol]		36	68	
CC1=C2C[C@H]3[C@@H](CC=C4C[C@@H](O)CC[C@@]43C)[C@@H]2CC[C@]12O[C@@H]1C[C@H](C)CN[C@H]1[C@H]2C [cyclopamine, reference compound]				Inhibition of oxysterol-induced Nkd2 expression [2]: did not inhibit; Inhibition of oxysterol-induced Wif-1 expression [3]: completely blocked; Inhibition of oxysterol-induced Patched (Ptch) mRNA expression [4]: completely abolished
C=C(C)CCC[C@](C)(O)[C@H]1CC[C@H]2[C@@H]3C[C@H](OC(C)=O)[C@H]4C[C@@H](O)CC[C@]4(C)[C@H]3CC[C@@]21C [Oxy41, (3S,5S,6S,8R,9S,10R,13S,14S,17S)-3-Hydroxy-17-((S)-2-hydroxy-6-methylhept-6-en-2-yl)-10,13-dimethylhexadecahydro-1H-cyclopenta[a]phenanthren-6-yl acetate]	osteoinductive	46	175	
C[C@]12CC[C@H](O)C[C@@H]1[C@@H](O)C[C@@H]1[C@@H]2CC[C@@]2(C)[C@H]1CC[C@@H]2[C@@](C)(O)CC#Cc1cccs1 [Oxy51, (3S,5S,6S,8R,9S,10R,13S,14S,17S)-17-((S)-2-hydroxy-5-(thiophen-2-yl)pent-4-yn-2-yl)-10,13-dimethylhexadecahydro-1H-cyclopenta[a]phenanthrene-3,6-diol]	osteoinductive			Alkaline phosphatase activity versus control vehicle (significance) [1]: not significant; fold induction at 1.25 µM [1, 6]: 3; fold induction at 2.5 µM [1, 6]: 20
C[C@]12CC[C@H]3[C@@H](CC=C4C[C@@H](O)CC[C@@]43C)[C@@H]1CC[C@@H]2[C@@](C)(O)CC#Cc1cccs1 [Oxy26, (3S,8S,9S,10R,13S,14S,17S)-17-((S)-2-Hydroxy-5-(thiophen-2-yl)pent-4-yn-2-yl)-10,13-dimethyl-2,3,4,7,8,9,10,11,12,13,14,15,16,17-tetradecahydro-1H-cyclopenta-[a]phenanthren-3-ol]	osteoinductive	27	76	
C[C@]12CC[C@H](O)C[C@@H]1[C@@H](O)C[C@@H]1[C@@H]2CC[C@@]2(C)[C@H]1CC[C@@H]2[C@@](C)(O)CCCc1ccccc1 [Oxy53, (3S,5S,6S,8R,9S,10R,13S,14S,17S)-17-((S)-2-hydroxy-5-phenylpentan-2-yl)-10,13-dimethylhexadecahydro-1H-cyclopenta[a]phenanthrene-3,6-diol]	osteoinductive			Alkaline phosphatase activity versus control vehicle (significance) [1]: not significant; fold induction at 1.25 µM [1, 6]: 2; fold induction at 2.5 µM [1, 6]: 11
C[C@]12CC[C@H]3[C@@H](CC=C4C[C@@H](O)CC[C@@]43C)[C@@H]1CC[C@@H]2[C@@](C)(O)CCCc1cccs1 [Oxy42, (3S,8S,9S,10R,13S,14S,17S)-17-((S)-2-Hydroxy-5-(thiophen-2-yl)pentan-2-yl)-10,13-dimethyl-2,3,4,7,8,9,10,11,12,13,14,15,16,17-tetradecahydro-1H-cyclopenta[a]phen-anthren-3-ol]	osteoinductive	166	290	
